Results as given in ChEMBL document CHEMBL1149980, “Synthesis of rutaecarpine and cytotoxic analogues” (1995).

How the values were obtained:
Type in all cases: functional
Conditions in all cases: Homo sapiens
[1] = test system: NCI-H460; assay: Tested for in vitro cytotoxicity against non-small cell lung cancer cell line NCI-H460
[2] = test system: OVCAR-4; assay: Tested for in vitro cytotoxicity against ovarian cancer cell line OVCAR-4
[3] = test system: CCRF-CEM; assay: Tested for in vitro cytotoxicity against leukemia cell line CCRF-CEM
[4] = test system: Hs-578T; assay: Tested for in vitro cytotoxicity against breast cancer cell line Hs 578.T
[5] = test system: 786-0; assay: Tested for in vitro cytotoxicity against renal cancer cell line 786-0
[6] = test system: A549; assay: Tested for in vitro cytotoxicity against non-small cell lung cancer cell line A549/ATCC

Compound | GI50 [1] | GI50 [2] | GI50 [3] | GI50 [4] | GI50 [5] | GI50 [6]
COc1ccc2c3c([nH]c2c1)-c1nc2ccccc2c(=O)n1CC3 | 1.38 µM | > 25 µM | > 25 µM | 1.59 µM | 0.31 µM | 0.75 µM
O=c1c2ccccc2nc2n1CCc1c-2[nH]c2cc3c(cc12)OCO3 | 1.55 µM | 1.5 µM | > 25 µM | 5.05 µM | 1.08 µM | > 25 µM
COc1ccc2[nH]c3c(c2c1)CCn1c-3nc2ccccc2c1=O | > 25 µM | > 25 µM | > 25 µM | > 25 µM | > 25 µM | > 25 µM
O=c1c2ccccc2nc2n1CCc1c-2[nH]c2ccccc12 [RUTAECARPINE] | – | 18.9 µM | 18.9 µM | 22.6 µM | – | 14.5 µM
